{"source": "ChEMBL document CHEMBL1156868", "about": "“One step radiosynthesis of 6-[(18)F]fluoronicotinic acid 2,3,5,6-tetrafluorophenyl ester ([(18)F]F-Py-TFP): a new prosthetic group for efficient labeling of biomolecules with fluorine-18” (J Med Chem, 2010)", "note": "pKi: −log10 of the molar value."}
{"target": "Integrin alpha-V/beta-3 (Homo sapiens, UniProt P05106+P06756)", "sequence (P05106 27-788 limits assumed)": "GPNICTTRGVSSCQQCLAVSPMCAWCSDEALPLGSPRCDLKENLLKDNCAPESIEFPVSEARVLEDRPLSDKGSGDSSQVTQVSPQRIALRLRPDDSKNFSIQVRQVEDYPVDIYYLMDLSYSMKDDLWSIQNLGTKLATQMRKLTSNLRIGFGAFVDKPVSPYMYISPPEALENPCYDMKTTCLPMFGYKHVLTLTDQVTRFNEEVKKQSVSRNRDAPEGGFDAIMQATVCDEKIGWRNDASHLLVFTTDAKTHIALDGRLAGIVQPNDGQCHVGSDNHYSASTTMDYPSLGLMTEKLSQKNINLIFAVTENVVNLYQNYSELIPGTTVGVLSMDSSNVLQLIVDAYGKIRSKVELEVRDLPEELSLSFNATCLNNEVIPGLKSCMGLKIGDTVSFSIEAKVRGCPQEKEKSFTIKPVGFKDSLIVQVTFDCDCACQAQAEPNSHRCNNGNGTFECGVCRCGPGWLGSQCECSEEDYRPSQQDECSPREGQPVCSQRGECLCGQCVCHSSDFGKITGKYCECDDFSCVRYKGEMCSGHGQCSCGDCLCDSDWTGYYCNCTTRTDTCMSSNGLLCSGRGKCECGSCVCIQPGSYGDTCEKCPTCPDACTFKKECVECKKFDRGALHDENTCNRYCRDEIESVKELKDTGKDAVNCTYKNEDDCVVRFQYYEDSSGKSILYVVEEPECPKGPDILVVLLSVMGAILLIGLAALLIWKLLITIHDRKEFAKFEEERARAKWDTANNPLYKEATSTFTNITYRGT", "sequence (P06756 31-889 limits assumed)": "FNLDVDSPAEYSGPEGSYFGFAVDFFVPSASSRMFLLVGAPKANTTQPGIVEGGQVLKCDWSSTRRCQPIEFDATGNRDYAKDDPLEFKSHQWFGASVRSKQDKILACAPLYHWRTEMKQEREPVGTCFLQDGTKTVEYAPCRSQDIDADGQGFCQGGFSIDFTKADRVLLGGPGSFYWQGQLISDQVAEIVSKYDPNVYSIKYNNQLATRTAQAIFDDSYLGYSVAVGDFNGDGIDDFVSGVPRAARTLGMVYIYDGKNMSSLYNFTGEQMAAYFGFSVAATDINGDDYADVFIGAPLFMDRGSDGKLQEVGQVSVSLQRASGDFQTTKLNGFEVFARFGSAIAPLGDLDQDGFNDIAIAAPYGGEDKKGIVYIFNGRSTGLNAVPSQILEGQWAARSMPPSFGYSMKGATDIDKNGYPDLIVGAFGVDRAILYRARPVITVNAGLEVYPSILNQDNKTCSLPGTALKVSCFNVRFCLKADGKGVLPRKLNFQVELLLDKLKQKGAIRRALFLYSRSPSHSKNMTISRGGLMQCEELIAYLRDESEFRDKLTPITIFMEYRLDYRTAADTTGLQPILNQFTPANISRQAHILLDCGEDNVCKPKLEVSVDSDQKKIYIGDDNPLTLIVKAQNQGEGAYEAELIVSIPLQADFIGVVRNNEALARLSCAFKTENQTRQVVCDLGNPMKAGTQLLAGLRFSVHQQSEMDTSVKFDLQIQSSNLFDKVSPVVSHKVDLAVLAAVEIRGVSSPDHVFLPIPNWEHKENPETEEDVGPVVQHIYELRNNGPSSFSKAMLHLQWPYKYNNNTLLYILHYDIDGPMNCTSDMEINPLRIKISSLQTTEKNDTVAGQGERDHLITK", "sequence (P06756 891-1048 limits assumed)": "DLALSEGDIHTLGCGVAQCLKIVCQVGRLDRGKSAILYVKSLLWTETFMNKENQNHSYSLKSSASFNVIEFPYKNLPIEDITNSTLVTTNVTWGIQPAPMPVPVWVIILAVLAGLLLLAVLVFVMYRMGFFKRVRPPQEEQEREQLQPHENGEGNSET", "test": "Displacement of [125I]echistatin from alphaVbeta3 receptor in human EA-Hy926 cells by gamma-counting", "format": "cell-based"}
{"smiles": "Cc1cc(C)c(S(=O)(=O)N[C@H](CNC(=O)c2cn(CCCNC(=O)COCC(=O)NCCOCCOCCOCCOCCOCCOCCOCCOCCOCCOCCOCCNC(=O)c3ccc(F)nc3)c3cc(CNc4ncc[nH]4)ccc3c2=O)C(=O)O)c(C)c1", "pKi": 7.83}
{"smiles": "Cc1cc(C)c(S(=O)(=O)N[C@H](CNC(=O)c2cn(CCCNC(=O)c3ccc(F)nc3)c3cc(CNc4ncc[nH]4)ccc3c2=O)C(=O)O)c(C)c1", "pKi": 7.72}
{"smiles": "NC(=O)COCC(=O)NCCOCCOCCOCCNC(=O)[C@@H]1CSCC(=O)N[C@@H](CCCCNC(=O)COCC(=O)NCCOCCOCCOCCOCCOCCNC(=O)CONC(=O)c2ccc(F)nc2)C(=O)N[C@H]2CSSC[C@H](NC(=O)[C@H](CC(=O)O)NC(=O)CNC(=O)[C@H](CCCN=C(N)N)NC2=O)C(=O)N[C@@H](Cc2ccccc2)C(=O)C1", "pKi": 8.70}
